The values that follow come from US9834542B2, “LXR modulators” (BRISTOL-MYERS SQUIBB COMPANY, priority 2013, dated 2017).

For this experiment, the target named is T1, LXRβ (Homo sapiens, UniProt P55055).
T1 construct: Co-transfection expression plasmids, comprising full-length LXRα (pCMX-h LXRα[…] or LXRβ (pCMX-hLXRβ)); expressed in transfected cells; host or cells: CV-1 African Green Monkey Kidney Cells
T1 sequence (P55055 1-460): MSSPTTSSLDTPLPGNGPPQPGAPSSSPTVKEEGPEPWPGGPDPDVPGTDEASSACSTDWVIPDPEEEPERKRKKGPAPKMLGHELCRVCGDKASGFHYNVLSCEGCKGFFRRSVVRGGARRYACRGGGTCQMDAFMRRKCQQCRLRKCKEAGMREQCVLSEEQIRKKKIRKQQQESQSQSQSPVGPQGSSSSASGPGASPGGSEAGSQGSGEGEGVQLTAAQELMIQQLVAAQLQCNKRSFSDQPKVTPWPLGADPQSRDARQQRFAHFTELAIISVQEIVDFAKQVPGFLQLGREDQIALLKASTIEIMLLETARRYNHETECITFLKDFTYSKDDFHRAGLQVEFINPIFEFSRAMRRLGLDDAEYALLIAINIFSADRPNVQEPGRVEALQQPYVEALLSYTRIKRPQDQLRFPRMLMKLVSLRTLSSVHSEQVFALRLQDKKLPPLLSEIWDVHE
T1 sequence (P19793 1-462 partner): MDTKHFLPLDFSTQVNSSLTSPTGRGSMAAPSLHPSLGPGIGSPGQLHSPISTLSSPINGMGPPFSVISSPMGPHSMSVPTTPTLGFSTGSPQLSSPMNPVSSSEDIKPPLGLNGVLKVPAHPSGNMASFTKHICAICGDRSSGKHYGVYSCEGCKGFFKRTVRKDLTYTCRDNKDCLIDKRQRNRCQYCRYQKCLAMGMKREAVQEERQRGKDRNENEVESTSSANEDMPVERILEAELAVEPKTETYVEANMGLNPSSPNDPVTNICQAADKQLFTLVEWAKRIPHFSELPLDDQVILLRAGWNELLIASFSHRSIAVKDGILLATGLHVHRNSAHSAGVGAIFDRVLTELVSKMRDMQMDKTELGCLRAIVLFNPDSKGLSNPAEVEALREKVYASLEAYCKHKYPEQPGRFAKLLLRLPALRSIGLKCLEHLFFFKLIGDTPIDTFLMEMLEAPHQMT
The experiment is described as follows: Co-transfection assay (LXRE luciferase reporter), LXRβ. Particulars: for EC50: CV-1 cells transfected with pCMX-hLXRβ and LXREx1-Tk-Luciferase, 20 hours incubation; for Emax: LXRβ co-transfection, relative to high control 1-(2,4-difluorobenzyl)-2-oxo-6-(4-phenoxyphenyl)-4-(trifluoromethyl)-1,2-dihydropyridine-3-carbonitrile, read-out: % Efficacy. In kind it is cell-based. From the text:
To measure the ability of compounds to activate or inhibit the transcriptional activity of LXR in a cell based assay, the co-transfection assay was used. It has been shown that LXR functions as a heterodimer with RXR. For the co-transfection assay, expression plasmids for LXRα and LXRβ are introduced separately via transient transfection into mammalian cells along with a luciferase reporter plasmid that contains one copy of a DNA sequence that is bound by LXR-RXR heterodimers (LXRE; Willy, P. et. al. 1995). LXRs heterodimerize with the endogenous RXR. Treatment of transfected cells with an LXR agonist increases the transcriptional activity of LXR, which is measured by an increase in luciferase activity.
CV-1 African Green Monkey Kidney Cells
Co-transfection expression plasmids, comprising full-length LXRα (pCMX-h LXRα[…] or LXRβ (pCMX-hLXRβ), reporter plasmid (LXREx1-Tk-Luciferase), and control (pCMX-Galactosidase expression vector) (Willey et al. Genes & Development 9 1033-1045 (1995)).
CV-1 cells were prepared 24 hours prior to the experiment by plating them into T-175 flasks or 500 cm^2 dishes in order to achieve 70-80% confluency on the day of the transfection. The number of cells to be transfected was determined by the number of plates to be screened. Each well of a 384 well plate requires 1.5×10^4 cells. DNA Transfection Reagent was prepared by mixing the required plasmid DNAs with a cationic lipid transfection reagent Transit 2020 (Mirus Bio) for CV1 by following the instructions provided with the reagents. Optimal DNA amounts were determined empirically per cell line and size of vessel to be transfected. For each T175 cm^2 flask a total of 59 ug for CV1 of DNA, 133 uL Transit2020 and 4.5 mL DMEM for CV1 was mixed and added. Cells were then incubated at least 5 hours at 37° C. to prepare screening cells.
Luciferase assay reagent (*Steady-Glo Luciferase Assay System by Promega, CAT#E2550) was prepared by combining before use:
Assay plates were prepared by dispensing 5 μL of compound per well of a 384 well plate to achieve final compound concentration of 10 μM and no more than 0.5% DMSO. Media was removed from the screening cells, the cells trypsinized, harvested cells by centrifugation, counted, and plated at a density of approximately 1.5×10^4 cells in the 384 well assay plate prepared above in a volume of about 95 uL. Assay plates containing both compounds and screening cells (100 μL in total volume) were incubated for 20 hours at 37° C.
After incubation with compounds, media was removed from the cells and luciferase assay reagent (50 μL/well) added. After ˜2 minutes at ambient temperature, the assay plates were read on a luminometer (PE Biosystems Northstar reader with on-board injectors, or Envision(Perkin Elmer) or equivalent).
The LXR/LXRE co-transfection assay can be used to establish the EC50/IC50 values for potency and percent activity or inhibition for efficacy. Efficacy defines the activity of a compound relative to a high control 1-(2,4-difluorobenzyl)-2-oxo-6-(4-phenoxyphenyl)-4-(trifluoromethyl)-1,2-dihydropyridine-3-carbonitrileor a low control (DMSO/vehicle). The dose response curves are generated from a 11 point curve with concentrations differing by ½ LOG units. Each point represents the average of 2 wells of data from duplicate 384 well plate.
The data from this assay is fitted to the following equation, from which the EC50 value may be solved: Y=Bottom+(Top−Bottom)/(1+10^((logEC50-X)*HillSlope)).
The EC50/IC50 is therefore defined as the concentration at which an agonist or antagonist elicits a response that is halfway between the Top (maximum) and Bottom (baseline) values. The EC50/IC50 values represented are the averages of at least 2 and normally 3 independent experiments. […]

By EC50 is commonly meant the concentration that produces a half-maximal response. The low end stands for higher potency in that assay, the high end for lower potency in that assay. As to `Cc1cc(-c2cnnn2-c2cc(-c3cccc(S(C)(=O)=O)c3)ccc2-n2cc(C(F)(F)F)nc2C)ccc1F` [Example 28, 5-(4-fluoro-3-methylphenyl)-1-{3′-(methylsulfonyl)-4-[2-methyl-4-(trifluoromethyl)-1H-imidazol-1-yl]biphenyl-3-yl}-1H-1,2,3-triazole], it took 589 nM to reach a half-maximal effect (EC50) and the Emax was determined as 117%.

As to `Cc1nc(C(F)(F)F)cn1-c1ccc(-c2cccc(S(C)(=O)=O)c2)cc1-n1nncc1-c1ccc2c(c1)OCO2` [Example 29, 5-(1,3-benzodioxol-5-yl)-1-{3′-(methylsulfonyl)-4-[2-methyl-4-(trifluoromethyl)-1H-imidazol-1-yl]biphenyl-3-yl}-1H-1,2,3-triazole], the EC50 amounted to 605 nM and the Emax came to 65%.

As for `CCCCOc1ccc(-c2cnnn2-c2cc(-c3cccc(S(C)(=O)=O)c3)ccc2-n2cc(C(F)(F)F)nc2C)cc1` [Example 30, 5-[4-(butyloxy)phenyl]-1-{3′-(methylsulfonyl)-4-[2-methyl-4-(trifluoromethyl)-1H-imidazol-1-yl]biphenyl-3-yl}-1H-1,2,3-triazole], the EC50 is 605 nM and the Emax worked out at 85%.

Take `Cc1nc(C(F)(F)F)cn1-c1ccc(-c2cccc(S(C)(=O)=O)c2)cc1-n1nncc1-c1ccc(OCC(F)(F)F)cc1` [Example 31, 1-{3′-(methylsulfonyl)-4-[2-methyl-4-(trifluoromethyl)-1H-imidazol-1-yl]biphenyl-3-yl}-5-{4-[(2,2,2-trifluoroethyl)oxy]phenyl}-1H-1,2,3-triazole]: a half-maximal effect (EC50) was put at 606 nM and the Emax amounted to 90%.

As for `Cc1nc(C(F)(F)F)cn1-c1ccc(-c2cccc(S(C)(=O)=O)c2)cc1-n1nncc1-c1ccc(SC(F)(F)F)cc1` [Example 32, 1-{3′-(methylsulfonyl)-4-[2-methyl-4-(trifluoromethyl)-1H-imidazol-1-yl]biphenyl-3-yl}-5-{4-[(trifluoromethyl)thio]phenyl}-1H-1,2,3-triazole], the midpoint of the response, the EC50, lay at 633 nM and the Emax was determined as 84%.

On to `Cc1nc(C(F)(F)F)cn1-c1ccc(-c2cccc(S(C)(=O)=O)c2)cc1-n1nncc1-c1ccc(F)c(Cl)c1` [Example 33, 5-(3-chloro-4-fluorophenyl)-1-{3′-(methylsulfonyl)-4-[2-methyl-4-(trifluoromethyl)-1H-imidazol-1-yl]biphenyl-3-yl}-1H-1,2,3-triazole], for which the EC50 came out at 649 nM and the Emax was 103%.

Regarding `Cc1nc(C(F)(F)F)cn1-c1ccc(-c2cccc(S(C)(=O)=O)c2)cc1-n1nncc1-c1ccc(F)c(F)c1` [Example 34, 5-(3,4-difluorophenyl)-1-{3′-(methylsulfonyl)-4-[2-methyl-4-(trifluoromethyl)-1H-imidazol-1-yl]biphenyl-3-yl}-1H-1,2,3-triazole], the EC50 is 661 nM and the Emax was 94%.

For the molecule `Cc1nc(C(F)(F)F)cn1-c1ccc(-c2cccc(S(C)(=O)=O)c2)cc1-n1nncc1-c1ccc(Cl)c(OC(F)(F)F)c1` [Example 35, 5-{4-chloro-3-[(trifluoromethyl)oxy]phenyl}-1-{3′-(methylsulfonyl)-4-[2-methyl-4-(trifluoromethyl)-1H-imidazol-1-yl]biphenyl-3-yl}-1H-1,2,3-triazole], the response was half-maximal at 663 nM (EC50) and the Emax was 68%.

As to `CC(=O)c1ccc(-c2cnnn2-c2cc(-c3cccc(S(C)(=O)=O)c3)ccc2-n2cc(C(F)(F)F)nc2C)cc1` [Example 36, 1-[4-(1-{3′-(methylsulfonyl)-4-[2-methyl-4-(trifluoromethyl)-1H-imidazol-1-yl]biphenyl-3-yl}-1H-1,2,3-triazol-5-yl)phenyl]ethanone], the EC50 was determined as 724 nM and the Emax is 60%.

For `Cc1nc(C(F)(F)F)cn1-c1ccc(-c2cccc(S(C)(=O)=O)c2)cc1-n1nncc1-c1cccc(OC(F)F)c1` [Example 37, 5-{3-[(difluoromethyl)oxy]phenyl}-1-{3′-(methylsulfonyl)-4-[2-methyl-4-(trifluoromethyl)-1H-imidazol-1-yl]biphenyl-3-yl}-1H-1,2,3-triazole], the response was half-maximal at 758 nM (EC50) and the Emax was determined as 96%.

For `Cc1nc(C(F)(F)F)cn1-c1ccc(-c2cccc(S(C)(=O)=O)c2)cc1-n1nncc1-c1ccc(Cl)cc1F` [Example 39, 5-(4-chloro-2-fluorophenyl)-1-{3′-(methylsulfonyl)-4-[2-methyl-4-(trifluoromethyl)-1H-imidazol-1-yl]biphenyl-3-yl}-1H-1,2,3-triazole], the EC50 amounted to 860 nM and the Emax is 92%.

For `Cc1nc(C(F)(F)F)cn1-c1ccc(-c2cccc(S(C)(=O)=O)c2)cc1-n1nncc1-c1ccc(F)cc1F` [Example 40, 5-(2,4-difluorophenyl)-1-{3′-(methylsulfonyl)-4-[2-methyl-4-(trifluoromethyl)-1H-imidazol-1-yl]biphenyl-3-yl}-1H-1,2,3-triazole], the EC50 was 954 nM and the Emax was determined as 87%.

With `Cc1nc(C(F)(F)F)cn1-c1ccc(-c2cccc(S(C)(=O)=O)c2)cc1-n1nncc1-c1ccc(Cl)c(C#N)c1` [Example 41, 2-chloro-5-(1-{3′-(methylsulfonyl)-4-[2-methyl-4-(trifluoromethyl)-1H-imidazol-1-yl]biphenyl-3-yl}-1H-1,2,3-triazol-5-yl)benzonitrile], it took 1050 nM to reach a half-maximal effect (EC50) and the Emax worked out at 74%.

In the case of `COc1ccc(-c2cnnn2-c2cc(-c3cccc(S(C)(=O)=O)c3)ccc2-n2cc(C(F)(F)F)nc2C)cc1OC(F)F` [Example 42, 5-{3-[(difluoromethyl)oxy]-4-(methyloxy)phenyl}-1-{3′-(methylsulfonyl)-4-[2-methyl-4-(trifluoromethyl)-1H-imidazol-1-yl]biphenyl-3-yl}-1H-1,2,3-triazole], the response was half-maximal at 1060 nM (EC50) and the Emax is 43%.
